Results taken from patent US7335373B2, “Biocidal siloxane coating material containing N-halogenated amine and amide functional groups” (Auburn University, priority 2003, dated 2008).

Experiments:
[1] = after 5 washing cycles
[2] = Oxidative chlorine loading by iodometric/thiosulfate titration; conditions: cotton fabric treated directly with 2% by weight TTDD, chlorinated in 10 vol % bleach at pH 8 for 30 minutes

CC1(C)CC2(CC(C)(C)N1)NC(=O)NC2=O [TTDD]
titratable chlorine after washing ([1]; TTDD-treated chlorinated cotton fabric): no titratable chlorine | rechlorination after washing ([1]; TTDD-treated cotton fabric): could not be rechlorinated | Cl^+ loading [2]: 0.57%
